Source: patent US12286418B2, “Compounds and methods for treating or preventing bacterial infections” (priority 2019, dated 2025)
Where “and” joins values, the source holds several entries; their conditions need not be identical. Identical values can stand only once.

Assays:
OXA-48 [1] = molecular target: T1, OXA-48 (Klebsiella pneumoniae, UniProt Q6XEC0); test: Example 8 inhibition assay with nitrocefin (aromatic acids): OXA-48; assay type: biochemical; parameters: His-tag (N, cleaved yes); made in house; host or cells: E. coli BL21(DE3), pET28a
T1 sequence (Q6XEC0 23-265, looked up): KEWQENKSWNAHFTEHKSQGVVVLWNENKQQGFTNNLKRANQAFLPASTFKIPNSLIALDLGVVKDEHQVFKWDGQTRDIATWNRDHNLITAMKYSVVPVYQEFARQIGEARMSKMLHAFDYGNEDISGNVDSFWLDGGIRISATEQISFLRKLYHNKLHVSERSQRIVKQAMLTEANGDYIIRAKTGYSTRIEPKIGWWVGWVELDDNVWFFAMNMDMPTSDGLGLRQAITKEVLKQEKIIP
Method: (§1) For each of the OXA enzymes, the nitrocefin steady states were determined so nitrocefin could be used as a reporter in the inhibition assays. Nitrocefin (MilliporeSigma, Burlington, MA) was kept at −20° C. upon purchase and thawed at room temperature and diluted in DMSO for usage. DMSO stocks were aliquoted and kept at −20° C. for only up to 2 weeks after dissolving. To determine the steady state kinetic parameters for nitrocefin hydrolysis, reactions were monitored on a DU-800 spectrophotometer (Beckman Coulter, Brea, CA) at 25° C. Enzyme and substrate samples were diluted using 50 mM HEPES, pH 7.5, 15 mM NaHCO3, and 0.02% Tween-20. Hydrolyzed nitrocefin was tracked at 482 nm. For a single experiment, a series of at least 5 nitrocefin concentrations was tested against the given enzyme. Each substrate concentration was tested in duplicate and initial velocities were averaged (for a given concentration) and fit the Michaelis-Menten equation. The experiment was repeated for rigor. The Km values determined for each enzyme was used to determine the amount of nitrocefin to use in the inhibition assays.
The inhibition activity for compounds were assessed using inhibition assays with nitrocefin as the reporter. A constant concentration of nitrocefin and the given enzyme was used with increasing concentrations of the compound in question. […] The enzymes OXA-24, OXA-48 and OXA-58 were used in their corresponding inhibition experiments at a constant concentration of 0.2 nM, 0.2 nM and 0.1 nM respectively. Compounds were tested at up to 500-4000 μM depending on solubility and absorbance output. The initial velocity of nitrocefin hydrolysis was monitored using a Tecan M200 Infinite Pro plate reader (Tecan, Mannedorf, Switzerland). The velocities at various compound concentrations were fit to the Morrison Tight Binding equation to determine the Ki value for the given fragment with the given OXA enzyme. Ligand efficiency (LE) was calculated using a previously reported equation: LE=1.37 (pKi)/(# non-Hydrogen atoms). […]

OXA-48 [2] = molecular target: T1, OXA-48; test: Surface plasmon resonance binding to immobilized 6x-His-OXA-48; parameters: His-tag (N, cleaved yes); made in house; host or cells: E. coli BL21(DE3), pET28a; conditions: SPR, immobilized His-OXA-48, positive control
Method: 6×-His-OXA-48 was capture/amine-coupled on a Ni-NTA Chip at a density of ˜5000 RU. Running buffer was 10 mM HEPES pH 7.4, 150 NaCl, 50 mM NaHCO3, 0.005% Tween-20, 2% DMSO. Concentration gradients of each compound were created from 0-15 μM using OneStep Injections in at least triplicates for meropenem and CDD-97.
(§2) Synthon-derivatives were created, without DNA tags, based on high OXA-48 enrichment and minimal NTC enrichment. The activity of these derivatives was assessed using inhibition assays with purified OXA-48. Compounds were tested for the ability to inhibit OXA-48 from hydrolyzing nitrocefin, a chromogenic β-lactam substrate routinely used in β-lactamase inhibition assays. Nitrocefin contains a conjugated ring system that is readily hydrolyzed and produces a visible color shift from yellow to red upon hydrolysis (O'Callaghan, et al., 1972, Antimicrob. Agents Chemother. 1:283-288). The rate of nitrocefin hydrolysis in the presence of a constant amount of OXA-48 and increasing concentrations of a given compound of interest was monitored at 482 nm. These rates were plotted against compound concentration to determine the inhibition constant (Ki) against OXA-48. Compounds with promising activity were also assessed for binding using surface plasmon resonance (SPR). SPR was performed using 6×-His-OXA-48 enzyme that was amine-coupled on a Ni-NTA Chip. Meropenem, which covalently binds and inhibits OXA-48, was used as a positive control.

OXA-48 [3] = molecular target: T1, OXA-48; conditions: non-β-lactam inhibitors; cited from earlier work
OXA-48 [4] = molecular target: T1, OXA-48; test: OXA-48 inhibition assay using nitrocefin as reporter; assay type: biochemical; parameters: His-tag (N, cleaved yes); made in house; host or cells: E. coli BL21(DE3), pET28a; conditions: for Ki: purified OXA-48, nitrocefin hydrolysis, Morrison fit
Method: Nitrocefin, a chromogenic β-lactam substrate, was used as a reporter in all inhibition assays with the various OXA enzymes and various compounds. Nitrocefin is not stable in aqueous solution long-term. For these assays, nitrocefin stocks were prepared in DMSO, stored at −20° C. and used within 2 weeks of dissolving. To avoid freeze-thawing, fresh stocks were always used. The Km of nitrocefin was determined prior to inhibition assays by performing steady state kinetics. Assays were performed using a DU800 spectrophotometer at room temperature in 50 mM HEPES pH 7.5, 15 mM NaHCO3, and 0.02% tween 20 buffer. Hydrolyzed nitrocefin was detected at 482 nm. For a single experiment, a series of at least 5 nitrocefin concentrations were tested against the given enzyme in duplicate and the initial velocities were measured and fit to the Michaelis-Menten equation. Experiments were repeated twice, and error reported is the standard error of the mean.
Compounds were tested for inhibition of a given OXA enzyme from hydrolyzing nitrocefin using a Tecan plate reader. […] A control with no compound was included in each run. For each compound concentration, the velocity of nitrocefin hydrolysis was determined at 482 nm and fit to the Morrison equation. […] The average Ki of separate experiments, each of which consisted of duplicate runs, is reported and error was quantified as the standard deviation.
as §2, with “The” for “Synthon-derivatives were created, without DNA tags, based on high OXA-48 enrichment and minimal NTC enrichment. The”, “Compounds with promising activity were also assessed for binding using surface plasmon resonance (SPR).” left out

OXA-24 = molecular target: T2, OXA-24 (Acinetobacter baumannii, UniProt Q8RLA6); test: Example 8 inhibition assay with nitrocefin (aromatic acids): OXA-24; assay type: biochemical
T2 construct: His-tag (N, cleaved yes); made in house; host or cells: E. coli BL21 (DE3), pET28a
T2 sequence (Q8RLA6 entry or part of it): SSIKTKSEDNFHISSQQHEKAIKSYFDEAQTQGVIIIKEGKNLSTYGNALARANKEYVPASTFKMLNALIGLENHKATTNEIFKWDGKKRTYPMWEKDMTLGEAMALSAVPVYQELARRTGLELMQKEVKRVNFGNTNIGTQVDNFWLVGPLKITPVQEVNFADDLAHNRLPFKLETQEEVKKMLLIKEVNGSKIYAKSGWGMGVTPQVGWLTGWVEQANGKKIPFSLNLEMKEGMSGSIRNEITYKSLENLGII
Method: as §1, with “Each substrate concentration was tested in duplicate and initial velocities were averaged (for a given concentration) and fit the Michaelis-Menten equation. The experiment was repeated for rigor.” left out
(§3) The inhibition activity for compounds were assessed using inhibition assays with nitrocefin as the reporter. […] Compounds were tested at up to 500-4000 μM depending on solubility and absorbance output. The initial velocity of nitrocefin hydrolysis was monitored using a Tecan M200 Infinite Pro plate reader (Tecan, Mannedorf, Switzerland). […] Ligand efficiency (LE) was calculated using a previously reported equation: LE=1.37 (pKi)/(# non-Hydrogen atoms). […]

OXA-58 = molecular target: T3, OXA-58 (Acinetobacter baumannii, UniProt Q2TR58); test: biochemical
T3 construct: His-tag (N, cleaved yes); made in house; host or cells: E. coli BL21 (DE3), pET28a
T3 sequence (Q2TR58 19-280): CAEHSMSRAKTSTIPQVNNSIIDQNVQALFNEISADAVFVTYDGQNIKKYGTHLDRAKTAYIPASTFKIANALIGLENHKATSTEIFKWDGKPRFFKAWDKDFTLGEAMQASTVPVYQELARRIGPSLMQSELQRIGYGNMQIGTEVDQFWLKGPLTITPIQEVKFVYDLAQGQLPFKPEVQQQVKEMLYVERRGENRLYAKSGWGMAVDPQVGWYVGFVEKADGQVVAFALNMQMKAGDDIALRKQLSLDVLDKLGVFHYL
Method: as §1, with “Each substrate concentration was tested in duplicate and initial velocities were averaged (for a given concentration) and fit the Michaelis-Menten equation. The experiment was repeated for rigor.” left out
as §3

Row | Molecule | Ki (OXA-48 [4]) | further results
1 | O=C(O)c1ccc(-c2ccc(C(=O)O)cc2)cc1 [Compound 2.1] | – | ligand efficiency (LE) for OXA-48 inhibition (OXA-48 [1]; LE=1.37 (pKi)/(# non-Hydrogen atoms)): 0.36; Ki (OXA-48 [1]; OXA-48 0.2 nM, 25 μM nitrocefin): 17.2 ± 1 µM
2 | C[C@@H](O)[C@H]1C(=O)N2C(C(=O)O)=C(S[C@@H]3CN[C@H](C(=O)N(C)C)C3)[C@H](C)[C@H]12 [Meropenem, reference compound] | – | Kd (OXA-48 [2]): 0.4235 ± 0.0002 µM
3 | O=C(O)C[C@@H]1CC[C@H](NC(=O)Cc2cccs2)B(O)O1 [vaborbactam] | – | efficacy against OXA-48 in words (OXA-48 [3]): ineffective against OXA-48
4 | CCOc1ccccc1N1CCN(c2ncnc(N3CCNC(C(=O)O)CC3)n2)CC1 (stereo not drawn) [CDD-559] | 29 µM | fold reduction in potency (OXA-48 Ki) compared to CDD-97 (OXA-48 [4]; relative to CDD-97): approximately 50 fold
5 | O=C(NC1CCNCC1)[C@@H]1CC[C@@H]2CN1C(=O)N2OS(=O)(=O)O [relebactam] | – | efficacy against OXA-48 in words (OXA-48 [3]): ineffective against OXA-48
6 | CS(=O)(=O)c1ccccc1N1CCN(c2ncnc(N3CCC(C(=O)O)CC3)n2)CC1 [CDD-181, 1-(4-(4-(2-(methylsulfonyl)phenyl)piperazin-1-yl)-1,3,5-triazin-2-yl)piperidine-4-carboxylic acid] | 3.23 ± 0.39 µM | –
7 | O=C(O)c1ccccc1O [Compound 1.1] | – | inhibition activity against OXA-24 in words (OXA-24): low millimolar activity; Ki (OXA-58): 379 ± 44 µM; inhibition activity against OXA-48 in words (OXA-48 [1]): low millimolar activity
8 | CCOc1ccccc1N1CCN(c2nc(NCCN)nc(N3CCC(C(=O)O)CC3)n2)CC1 [drawing 44] | 0.84 ± 0.03 µM | –
9 | CCOc1ccccc1N1CCN(c2ncnc(N3CCC(S(=O)(=O)O)CC3)n2)CC1 [drawing 46] | 0.26 ± 0.04 µM | –
10 | CCOc1ccccc1N1CCN(c2ncnc(N3CCC(N)(C(=O)O)CC3)n2)CC1 | 29 ± 4 µM | –
11 | 1-(4-(2-(2-ethoxyphenoxy)ethoxy)-1,3,5-triazin-2-yl)piperidine-4-carboxylic acid [CDD-900] | 38.1 µM | –
12 | O=C(O)C1CCN(c2ncnc(N3CCN(c4ccccc4OCC(F)(F)F)CC3)n2)CC1 [CDD-178, 1-(4-(4-(2-(2,2,2-trifluoroethoxy)phenyl)piperazin-1-yl)-1,3,5-triazin-2-yl)piperidine-4-carboxylic acid] | 1 µM and 0.83 µM | –
13 | CCOc1ccccc1CCCNc1ncnc(N2CCC(C(=O)O)CC2)n1 [CDD-899] | 15 µM | –
14 | CN1CCN(c2ncnc(N3CCC(C(=O)O)CC3)n2)CC1 [CDD-187, 1-(4-(4-methylpiperazin-1-yl)-1,3,5-triazin-2-yl)piperidine-4-carboxylic acid] | > 50 µM | –
